Columns and labels:
[1] = human, in vivo
HBV (plasma HBsAg) = experiment: Plasma HBsAg change from baseline in patients with chronic Hepatitis B infection, 4 weeks; type: in vivo, human; settings: 400 mg QD vs 200 mg BID, chronic Hepatitis B patients (FIG. 3)
Procedure: FIG. 3: Plasma HBsAg (Log 10 IU/mL) change from baseline in patients with chronic Hepatitis B infection. Patients received during 4 weeks either Placebo (n=8), EYP001 200 mg BID (n=8) or EYP001 400 mg QD (n=8). Values expressed as mean; error bar is SD. * p<0.05 vs baseline.
Patients chronically infected with HBV underwent a 4-week treatment as either daily oral FXR agonist EYP001 monotherapy or placebo or entecavir (ETV) in Part A of the study (n=48) or in combination with IFN (Part B, n=23, weekly sub-cutaneous injections of pegylated IFNα2a, PEG-IFN). Overall 15 (30%) patients developed pruritus related to EYP001, a well-known TEAE with FXR agonist, the mechanism of which however is poorly understood.

[2] = Study EYP001-202 Phase 2a in NASH patients: pruritus intensity on Visual Analog Scale, safety and tolerance; type: in vivo, human
Procedure: Values are AUC least square means (error bars=SE). AUC=area under the concentration-time curve; BID=twice daily; QD=once daily. * p<0.05 versus Placebo.
(§1) EYP001a is an investigational agonist of the FXR, a key regulator of bile, lipid, and glucose metabolism. […] Study EYP001-202 is a Phase 2a, 2-part study conducted to determine the efficacy and safety profiles of different doses and dosing regimens of EYP001 (100 mg twice daily [BID] and 200 mg once daily [QD]) versus placebo on LFC (liver fat content) from baseline to Week 12 in patients with NASH. An interim analysis on 24 patients enrolled in Part A Safety Run-in Cohort focused on safety, tolerance and key efficacy results.
VAS (Visual Analog Score) results were the followings: 100 mg BID group (mean change from baseline ranged from 3.34 on Day 7 to 6.84 on Day 21), and the 200 mg QD group (mean change from baseline ranged from 3.03 on Day 28 to 3.47 on Day 56).
The efficacy was shown with a significant, clinically relevant LFC reduction from baseline. However, tolerance was affected due to pruritus events causing premature terminations. The BID regimen less well tolerated compared to QD regimen. In addition, a higher efficacy is associated to the QD regimen in comparison to the BID.

[3] = Study EYP001-202 Phase 2a in NASH patients: liver fat content (LFC) change from baseline to Week 12 by MRI-PDFF; type: in vivo, human
Procedure: FIG. 2: Absolute Liver Fat Content Change (%) from baseline assessed by MRI-PDFF in NASH patients treated during 12 weeks with EYP001 100 mg BID (n=4) or EYP001 200 mg QD (n=3) or Placebo (n=5). Values expressed as means; error bar is SE. #p=0.07 vs baseline. The ------- line corresponds to a 5% clinical meaningful reduction. Analysis of covariance (ANCOVA) model with change from baseline as the dependent variable and baseline Liver Fat Content as a covariate and treatment (pooled EYP001 and Placebo BID) and stratification factors—statin use and T2DM status at screening as factors.
as §1
The primary efficacy endpoint of LFC reduction was met.

NASH rodent model = type: in vivo
[4] = clinical trials of obeticholic acid (PBC, NASH); cited from earlier work

| Structure (SMILES) | frequency of pruritus with QD dosing compared to BID regimens [1] | any of above Pruritus related MEDRA (% of patients) ([1]; 4 weeks) [%] | n = any of above Pruritus related MEDRA (number of patients) ([1]; 4 weeks) | none of above (% of patients without pruritus) ([1]; 4 weeks) [%] | none of above (number of patients without pruritus) ([1]; 4 weeks) | patients who developed pruritus related to EYP001 (%) ([1]; 4 weeks) | patients who developed pruritus related to EYP001 (number) ([1]; 4 weeks) | plasma HBsAg change from baseline, efficacy of regimens compared (HBV (plasma HBsAg)) | tolerance in VAS analysis (AUC over 12 weeks) ([2]; NASH patients, 200 mg QD vs 100 mg BID (FIG. 1)) | serious AEs ([2]; male and female F2-F3 NASH patients, 100 mg BID and 200 mg QD) | LFC reduction, regimens compared ([3]; 200 mg QD group compared to 100 mg BID group, 12 weeks (FIG. 2)) | LFC reduction, difference from placebo ([3]; EYP001 groups pooled (100 mg BID and 200 mg QD), baseline to Week 12, p=0.04, absolute LFC change (%) by MRI-PDFF) | effect on liver steatosis, inflammation, apoptosis and fibrosis (NASH rodent model) | pruritus rates [4] |
| --- | --- | --- | --- | --- | --- | --- | --- | --- | --- | --- | --- | --- | --- | --- |
| O=C(O)c1cc2c(Cl)c(N3CCN(S(=O)(=O)c4c(Cl)cccc4Cl)CC3)ccc2o1 [EYP001] | up to four times less frequent pruritus | 27 | 9 | 73 | 24 | 30 | 15 | better efficacy | better tolerance | no serious AEs | more pronounced effect | 8.62 | reduced liver steatosis, inflammation, apoptosis, and fibrosis |  |
| CC[C@H]1[C@@H](O)[C@@H]2[C@H](CC[C@]3(C)[C@@H]([C@H](C)CCC(=O)O)CC[C@@H]23)[C@@]2(C)CC[C@@H](O)C[C@@H]12 [obeticholic acid] |  |  |  |  |  |  |  |  |  |  |  |  |  | up to 51% |

Reference: patent publication US12551480B2, “Treatment using EYP001” (ENYO PHARMA, priority 2019, dated 2026)
